Measured values taken from PMC12291851, “Hydrogen Sulfide (H2S)-Donating Formyl Peptide Receptor 2 (FPR2) Agonists: Design, Synthesis, and Biological Evaluation in Primary Mouse Microglia Culture” (Antioxidants, 2025).

Legend:
[1] = tested on: IL-10; assay: IL-10 ELISA in medium of microglial cultures; assay type: cell-based, mouse; conditions: 1 μM pretreatment 1 h, then LPS 0.1 μg/mL 24 h
Experimental: Primary microglial cell cultures were derived from the cortices of 1–2-day-old mouse pups (1pup/1 brain/1 flask). After decapitation, the brains were extracted and immediately placed in cold Hanks’ Balanced Salt Solution (HBSS, Gibco, New York, NY, USA) on ice. The brains were washed at least three times with 7 mL of HBSS and then transferred to 10 mL of fresh culture media consisting of Dulbecco’s Modified Eagle Medium (DMEM) with GlutaMax and high glucose (4.5 g/L) (Gibco, New York, NY, USA) on ice. The tissue was minced and incubated in HBSS containing glucose, bovine serum albumin (BSA; Sigma-Aldrich, St. Louis, MO, USA), and HEPES (Gibco, New York, NY, USA) with 0.025% trypsin at 37 °C for 20 min. […] The purity of microglial cell cultures was assessed as we have shown previously. […]
To assess the effect of test compounds on IL-18, IL-6, and IL-10 levels, the medium of microglial cell cultures was collected 24 h after LPS treatment. The protein levels of the cytokines IL-18 (Mouse interleukin 18 ELISA kit), IL-6 (Mouse interleukin 6 ELISA kit), and IL-10 (Mouse interleukin 10 ELISA kit; all obtained from FineTest, Wuhan, China) were measured using commercially available enzyme-linked immunosorbent assay kits according to the manufacturer’s instructions. […]

[2] = Cell-free H2S release fluorescence assay with probe 9 (7-azido-4-methylcoumarin); assay type: physicochemical; conditions: PBS/DMSO 10%, 37 °C, probe 9 100 μM
Experimental: The H2S release fluorescence assay was carried out in a final volume of 100 μL PBS/DMSO 10% in black 96-well plates. Solutions with decreasing concentrations of each tested compound were prepared in PBS/DMSO 10%. Then, 50 μL of each solution was dispensed in triplicate in each well. Starting from a 10 mM stock solution, a 200 μM solution of probe 9 was prepared and stored in the dark until 50 μL was dispensed in each well. Blank wells containing only the probe at 100 μM in 100 μL of PBS/DMSO 10% are also prepared. A H2S calibration curve was obtained by incubating solutions of NaSH with the probe under the same conditions, although a different plate was used to minimize interferences due to the diffusion of rapidly released H2S. After 24 h and 48 h incubation in a humidified incubator at 37 °C, 5% CO2, fluorescence reads are obtained from each well with a plate reader TECAN M1000 Pro (Tecan, Männedorf, Switzerland), at λex = 350 nm and λem = 440 nm. Each experiment was replicated at least three times. The data were processed using Microsoft Excel (Microsoft, Redmond, WA, USA) and GraphPad Prism 7 (GraphPad Software, La Jolla, CA, USA).
Compound 9 is a turn-on fluorescent probe that features an azido moiety which can be reduced to amine by H2S, leading to the formation of the fluorescent derivative 7-amino-4-methylcoumarin 10 (λex = 350 nm and λem = 440 nm, Scheme 2). We included NaHS in the assay as a positive control and 3a as a negative control.

[3] = biological target: T1, FPR2 (Homo sapiens, UniProt P25090); assay: cell-based
T1 sequence (P25090 1-351): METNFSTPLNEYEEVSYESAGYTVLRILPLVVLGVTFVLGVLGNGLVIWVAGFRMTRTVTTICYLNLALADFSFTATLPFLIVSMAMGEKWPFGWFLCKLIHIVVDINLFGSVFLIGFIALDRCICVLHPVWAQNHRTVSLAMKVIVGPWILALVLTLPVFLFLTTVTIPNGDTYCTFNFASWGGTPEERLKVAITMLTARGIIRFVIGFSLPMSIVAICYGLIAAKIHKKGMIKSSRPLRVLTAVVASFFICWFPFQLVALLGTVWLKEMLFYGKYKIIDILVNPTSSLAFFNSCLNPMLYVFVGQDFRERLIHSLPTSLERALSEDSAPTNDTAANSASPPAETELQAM

SMILES	LPS-induced increase of IL-10 level [1]	H2S release detected with probe 9 in aqueous media ([2]; 24 h incubation)	H2S release detected with probe 9 in aqueous media ([2]; 48 h incubation)	EC50 [3]
N#Cc1ccc(C[C@H](NC(=O)Nc2ccc(F)cc2)C(=S)N2CCc3ccccc32)cc1 [7b, (S)-1-[3-(4-Cyanophenyl)-1-(indolin-1-yl)-1-thioxopropan-2-yl]-3-(4-fluorophenyl)urea]	able to counterbalance the LPS-induced increase	detected H2S release	more intense	600 ± 200 nM
N#Cc1ccc(C[C@H](NC(=O)Nc2ccc(Br)cc2)C(=S)N2CCc3ccccc32)cc1 [8b, (S)-1-(4-Bromophenyl)-3-[3-(4-cyanophenyl)-1-(indolin-1-yl)-1-thioxopropan-2-yl]urea]	able to counterbalance the LPS-induced increase	–	limited capability to release H2S	40 ± 20 nM
